pIC50: −log10 of the molar value. Structures can show the parent of a compound that is named as a salt.

As a reminder, the pIC50 is the IC50 on a negative log10 scale, so that one unit is a factor of ten.

The target of one assay is T1, rat NaPi-2b (Rattus norvegicus, UniProt Q9JJ09).
T1 construct: expressed in transfected cells; host or cells: Xenopus oocytes injected with cRNA
T1 sequence (Q9JJ09 1-695): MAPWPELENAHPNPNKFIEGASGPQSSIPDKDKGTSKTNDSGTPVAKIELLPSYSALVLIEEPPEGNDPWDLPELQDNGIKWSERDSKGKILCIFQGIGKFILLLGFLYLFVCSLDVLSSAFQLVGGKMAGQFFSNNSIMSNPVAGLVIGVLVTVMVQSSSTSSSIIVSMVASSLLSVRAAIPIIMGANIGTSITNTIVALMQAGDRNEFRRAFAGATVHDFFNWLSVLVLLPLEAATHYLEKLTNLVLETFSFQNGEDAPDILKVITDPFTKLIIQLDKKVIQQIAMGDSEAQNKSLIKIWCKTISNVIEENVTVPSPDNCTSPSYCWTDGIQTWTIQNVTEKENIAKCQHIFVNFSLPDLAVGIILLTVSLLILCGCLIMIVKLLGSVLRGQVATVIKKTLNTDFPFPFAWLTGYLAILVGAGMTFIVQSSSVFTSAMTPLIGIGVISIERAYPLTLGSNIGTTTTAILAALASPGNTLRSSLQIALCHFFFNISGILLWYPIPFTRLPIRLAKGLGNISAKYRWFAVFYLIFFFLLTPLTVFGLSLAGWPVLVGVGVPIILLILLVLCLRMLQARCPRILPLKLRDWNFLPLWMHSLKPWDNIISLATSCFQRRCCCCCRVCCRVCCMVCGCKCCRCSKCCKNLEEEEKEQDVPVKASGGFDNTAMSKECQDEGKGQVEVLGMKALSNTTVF
Nature of the assay: Sodium-dependent phosphate uptake of Xenopus oocytes which expressed NaPi-2b (32P). In kind it is cell-based. The conditions noted are these: for pIC50: Xenopus oocytes expressing rat NaPi-2b, 32P radioactive phosphorus, read-out: IC50 (phosphate uptake inhibitory activity). Summed up:
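Rat small-intestine NaPi-2b cRNA injected into Xenopus oocytes, expressed for 2 days. Sodium-dependent phosphate uptake measured with 32P; % inhibition at 300 and 100 μM taken from the same inhibition curve.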

The target of the next assay is T2, human NaPi-2a (Homo sapiens, UniProt Q06495).
T2 construct: expressed in transfected cells
T2 sequence (Q06495 1-639): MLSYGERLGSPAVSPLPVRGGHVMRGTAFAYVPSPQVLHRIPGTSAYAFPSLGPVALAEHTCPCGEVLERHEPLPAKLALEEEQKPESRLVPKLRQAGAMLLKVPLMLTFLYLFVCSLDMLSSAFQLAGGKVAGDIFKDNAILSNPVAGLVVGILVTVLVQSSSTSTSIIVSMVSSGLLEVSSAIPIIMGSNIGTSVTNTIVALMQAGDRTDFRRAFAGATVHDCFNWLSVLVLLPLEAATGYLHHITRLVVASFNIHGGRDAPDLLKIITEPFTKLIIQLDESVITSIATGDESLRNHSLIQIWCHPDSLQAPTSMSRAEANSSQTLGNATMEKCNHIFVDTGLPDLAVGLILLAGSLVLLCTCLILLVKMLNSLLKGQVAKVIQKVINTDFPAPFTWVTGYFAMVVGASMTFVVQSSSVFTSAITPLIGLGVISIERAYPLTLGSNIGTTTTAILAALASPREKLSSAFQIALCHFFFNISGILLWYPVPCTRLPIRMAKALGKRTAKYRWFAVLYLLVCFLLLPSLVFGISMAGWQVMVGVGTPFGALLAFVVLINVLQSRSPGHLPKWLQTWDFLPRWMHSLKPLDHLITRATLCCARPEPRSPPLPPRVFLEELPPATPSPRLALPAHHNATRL
Nature of the assay: Sodium-dependent phosphate uptake of Xenopus oocytes which expressed NaPi-2a (32P). In kind it is cell-based. The conditions noted are these: Xenopus oocytes expressing human NaPi-2a, FIG. 3, FIG. 4. The text has this:
Experiment of Sodium-Dependent Phosphate Uptake of Xenopus oocytes which Expressed NaPi-2a
In the test, a group with the addition of choline chloride (Choline Cl) was used as a negative control for nonspecific uptake, and PFA (phosphonoformic acid) was used as a positive control for phosphate transport inhibition.

Assay [1] has as its system rabbit jejunal brush border membrane vesicles. Nature of the assay: Nonspecific inhibitory activity against glucose absorption in rabbit jejunal brush border membrane vesicles (14C-glucose). In kind it is biochemical. The note with it: FIG. 2. As for the experimental part:
(§1) Jejunal epithelium was obtained from New Zealand white male rabbits (7 weeks old, obtained from KITAYAMA LABES Co., Ltd. (Japan)), and brush border membrane vesicles were isolated by the calcium precipitation method described in Kanako Katai et al., J. Biochem. 121, 50-55, 1997, and Peerce, B. E. et al., Biochemistry 26, 4272-4279, 1987. Thereafter, for compound 29 and compound 68, the phosphate uptake inhibitory activity was measured using the same samples with ^32P radioactive phosphorus (manufactured by Daiichi Kagaku Inc. (Japan)) by the rapid filtration method described in Kanako Katai et al., J. Biochem. 121, 50-55, 1997. […] Further, in the same experiment, nonspective inhibitory activity against glucose absorption was determined using 14C-glucose (manufactured by Moravek Biochemical Inc. (US)). […] In both the experiments, a group with the addition of potassium chloride was used as a negative control for nonspecific uptake. All the test results given below were expressed in terms of average value±standard error. Student's t-test was used for a significant test of the control group and the test compound group.

For assay [2] the test system is unchanged. Nature of the assay: Sodium-dependent phosphate uptake of rabbit jejunal brush border membrane vesicles (32P, rapid filtration). In kind it is biochemical. The note with it: FIG. 1.
Excerpt: Pharmacological Test Example 2
Experiment of Sodium-Dependent Phosphate Uptake of Rabbit Jejunal Brush Border Membrane Vesicles
as §1

In a further assay the test system is SD rats. The assay is described as follows: Inhibitory activity against 32P absorption from intestinal tract. In kind it is in vivo. The note with it: Rattus norvegicus, oral, read-out: Blood radioactivity inhibition, %. As for the experimental part:
Pharmacological Test Example 4
Inhibitory Activity Against ^32P Absorption from Intestinal Tract
SD rats (6 to 7 weeks old, obtained from Charles River Japan, Inc. (Japan)) were raised with low-phosphorus diet (phosphorus content 0.1%, manufactured by Oriental Yeast Co., Ltd. (Japan)) for 3 to 4 days and then fasted for about 24 hr for experiment. ^32P was diluted with purified water or liquid feed (CLEA JAPAN INC. (Japan)) to 0.7 to 3.5 MBq/ml and was forcibly orally administered at a dose of 5 ml/kg (administered into the gaster through an oral probe). The compounds or media were forcibly orally administered at a dose of 5 ml/kg (divided dose of twice), 30 min before the administration of ^32P and simultaneously with the administration of ^32P. Blood was collected from caudal artery 30 min, 45 min, or 60 min after ^32P administration, and blood ^32P radioactivity was measured with a liquid scintillation counter. Inhibition of an increase in blood radioactivity was used as a measure of inhibition of phosphate absorption from the intestinal tract.
The results are expressed in terms of the percentage inhibition determined by the following equation. (Blood radioactivity for group with the administration of medium−Blood radioactivity for group with the administration of compound)/(Blood radioactivity for group with the administration of medium)×100
t-Test was used for a significant test of the average value difference of blood radioactivity.

On to `COc1ccc(C(=O)Nc2ccc(Br)cc2C(=O)N/N=C/c2cccc(F)c2)cc1OC` [Compound 29, N-[4-Bromo-2-(3-fluoro-benzylidene-hydrazinocarbonyl)-phenyl]-3,4-dimethoxy-benzamide], for which the pIC50 at rat NaPi-2b was 6.26. Further, on rat NaPi-2b (Xenopus oocytes, FIG. 4), the “phosphate uptake inhibitory activity against NaPi-2b” value is given as “had inhibitory activity”. Besides, on human NaPi-2a, the “phosphate uptake inhibitory activity against NaPi-2a” value is reported as “had inhibitory activity”. Further, the “nonspecific inhibitory activity against glucose absorption” value in assay [1] was “did not have the inhibitory activity”. Moreover, the “phosphate uptake inhibitory activity” value in assay [2] is given as “concentration-dependent inhibitory activity”.

For the compound `COc1ccc(C(=O)Nc2ccc(Cl)cc2C(=O)N/N=C/c2ccc(C)cc2)cc1OC` [Compound 68, N-[4-Chloro-2-(4-methyl-benzylidene-hydrazinocarbonyl)-phenyl]-3,4-dimethoxy-benzamide], the pIC50 on rat NaPi-2b was 6.44. In addition, the “nonspecific inhibitory activity against glucose absorption” value in assay [1] was “did not have the inhibitory activity”. Also, in assay [2], the “phosphate uptake inhibitory activity” value is listed as “concentration-dependent inhibitory activity”.

Turning to `Cc1ccc(/C=N/NC(=O)c2cc(Br)ccc2NC(=O)c2cccnc2)cc1` [Compound 252, N-[4-Bromo-2-(4-methyl-benzylidene-hydrazinocarbonyl)-phenyl]-nicotinamide hydrochloride], the pIC50 at rat NaPi-2b was 5.83. Moreover, the inhibition in vivo at 400 mg/kg in the assay on SD rats came out at 29.2%.

As for `COc1ccc(C(=O)Nc2ccc(Cl)cc2C(=O)N/N=C/c2ccc(Cl)c(C(F)(F)F)c2)cc1OC` [Compound 88, N-[4-Chloro-2-(4-chloro-3-trifluoromethyl-benzylidene-hydrazinocarbonyl)-phenyl]-3,4-dimethoxy-benzamide], the pIC50 at rat NaPi-2b is 6.66. Also, the inhibition in vivo at 400 mg/kg in the assay with SD rats turned out to be 29.1%.

For `Cc1cccc(/C=N/NC(=O)c2ccccc2NC(=O)c2ccncc2)c1` [Compound 253, N-[2-(3-Methyl-benzylidene-hydrazinocarbonyl)-phenyl]-isonicotinamide hydrochloride], the negative logarithm of the IC50 (pIC50) on rat NaPi-2b is 5.46. The inhibition in vivo at 400 mg/kg in the assay with SD rats amounted to 39%.

As to `O=C(Nc1ccccc1C(=O)N/N=C/c1ccc(F)cc1)c1cccnc1` [Compound 130, N-[2-(4-Fluoro-benzylidene-hydrazinocarbonyl)-phenyl]-nicotinamide], the pIC50 at rat NaPi-2b was 4.94. Moreover, the inhibition in vivo at 270 mg/kg with SD rats (dose 270 mg/kg) came out at 22.8%.

Consider `Cc1ccc(/C=N/NC(=O)c2ccccc2NC(=O)c2cccnc2)cc1C` [Compound 165, N-[2-(3,4-Dimethyl-benzylidene-hydrazinocarbonyl)-phenyl]-nicotinamide hydrochloride], for which, on rat NaPi-2b, the pIC50 is 5.61. For the same compound, in the assay with SD rats, the inhibition in vivo at 400 mg/kg amounted to 27.6%.

As for `CCN(CC)CCN(C)Cc1ccc(C(=O)Nc2ccc(Br)cc2C(=O)N/N=C/c2ccc(C)cc2)cc1` [Compound 285, N-[4-Bromo-2-(4-methyl-benzylidene-hydrazinocarbonyl)-phenyl]-4-{[(2-diethylamino-ethyl)-methyl-amino]-methyl}-benzamide], the pIC50 at rat NaPi-2b is 6.05. For the same compound, the inhibition in vivo at 80 mg/kg with SD rats (dose 80 mg/kg) was 60.3%.

Take `COc1ccc(C(=O)Nc2ccc(Br)cc2C(=O)N/N=C/c2ccc(C)c(C)c2)cc1OC` [Compound 91, N-[4-Bromo-2-(3,4-dimethyl-benzylidene-hydrazinocarbonyl)-phenyl]-3,4-dimethoxy-benzamide]: on rat NaPi-2b, the pIC50 is 6.66. For the same compound, in the assay with SD rats (dose 320 mg/kg), the inhibition in vivo at 320 mg/kg turned out to be 28.3%.
